From ChEMBL document CHEMBL3259636, “Phenyl carboxamide analogues as spleen tyrosine kinase (syk) inhibitors” (ACS Med Chem Lett, 2014) come the findings set out here.

The target in this experiment is Tyrosine-protein kinase SYK (Homo sapiens, UniProt P43405). Put plainly: Inhibition of human recombinant SYK by HTRF assay.
For the compound `NC(=O)c1ccc(N[C@@H]2CCCC[C@@H]2N)cc1Nc1cccc(-c2ccccc2)n1`, the IC50 was under 1.5 nM.

As for `NC(=O)c1ccc(N[C@@H]2CCCC[C@@H]2N)cc1Nc1cccc(-c2cccc(F)c2)n1`, the IC50 is under 1.5 nM.

`COc1ccc(-c2cccc(Nc3cc(N[C@@H]4CCCC[C@@H]4N)ccc3C(N)=O)n2)cc1`: the IC50 was under 1.5 nM.

For the compound `NC(=O)c1ccc(N[C@@H]2CCCC[C@@H]2N)cc1Nc1cccc(-c2ccc(F)c(F)c2)n1`, the IC50 is under 1.5 nM.

Turning to `Cc1cccc(Nc2cc(N[C@@H]3CCCC[C@@H]3N)ccc2C(N)=O)n1`, the IC50 was over 1.5 nM.
